Tested on: 422866-222-R5-J1-PDC spheroids with HUVEC/MSC, viability
Assay: Anticancer human tumor 422866-222-R5-J1-PDC patient-derived pancreatic adenocarcinoma cell line growth inhibition [GQUAD]
Settings: for IC50: curve of first compound; for viability, T/C: stronger effect = lower value; active = viability on the fitted dose curve at most 10% of control; inactive = the rest
Text: DNA G-quadruplex Stabilizer Agents in Combinations in Complex Spheroids
A high-throughput screen of multi-cell type tumor spheroids was designed to identify active combinations of DNA G-quadruplex stabilizer agents and targeted small molecules. Complex spheroids include a stromal component modeled by human endothelial cells (HUVEC) and fibroblasts modeled by human mesenchymal stem cells (MSCs). The concentration ranges selected for each drug and investigational agent were based upon clinically achievable concentrations if the clinical Cmax of the agent was known.
Compounds. The drugs and investigational agents: pidnarulex (CX-5461; NSC782164), APTO-253 (NSC789042), BRACO-19 (NSC847499), peposertib (NSC802822), ceralasertib (NSC780249), elimusertib (NSC800525), camonsertib (NSC841442), AZD-1390 (NSC803789), olaparib (NSC753686), talazoparib (NSC767125), ART-558 (NSC835418), sotorasib (NSC818433), MRTX-1133 (NSC836407), SN-38 (NSC673596), topotecan (NSC609699), etoposide (NSC141540), doxorubicin (NSC123127), gemcitabine (NSC613327), 5-fluorouracil (NSC19893), paclitaxel (NSC125973), vemurafenib (NSC761431), panobinostat (NSC761190), R-306465 (JNJ-16241199; NSC773264), adavosertib (NSC754352), TP-3654 (NSC805149), carboplatin (NSC241240), KSQ-4279 (NSC840948), and staurosporine (NSC755774) were obtained from the National Cancer Institute (NCI) Developmental Therapeutics Program Chemical Repository (34). The FDA-approved anticancer drug set is available from the NCI Developmental Therapeutics Program. […] The stock solutions were prepared in dimethyl sulfoxide (DMSO, Sigma-Aldrich, St. Louis, MO, cat. D2650) at 800-fold the tested concentration and stored at -70 degrees C prior to their use. All drugs and investigational agents were tested over a range starting from a high concentration at or near the clinical Cmax and decreasing in half-log increments. If the clinical Cmax for an agent had not been determined, the highest concentration tested was 10 microM.
2.3 Cell Culture. All cells were maintained in an incubator at 37 degrees C and 5% CO2 with 95% humidity. The PDC lines were cultured according to standard operating procedures established by the NCI PDMR. All PDCs were thawed and cultured in Matrigel-coated flasks prepared with a working solution of 1X Ham's F-12 nutrient mix, without supplementation (Invitrogen, cat. 11765054), 100 U/mL penicillin-streptomycin (Invitrogen, cat. 15140122), and 2.5% Matrigel (Corning Inc., cat. 354248) for the first three passages. The 857933-349-R-J2-PDC line was cultured in 6C/Colon 1B media, which includes advanced DMEM/F-12 (Thermo Fisher Scientific, cat. 12634028), 10 mM HEPES (Thermo Fisher Scientific, cat. 15630080), 1X GlutaMAX supplement (Thermo Fisher Scientific, cat. 35050061), 0.1 mg/mL primocin (InvivoGen, cat. ant-pm-2), 10% defined fetal bovine serum, heat inactivated (HyClone Laboratories Inc., cat. SH30070.03HI), 50% L-WRN conditioned media (ATCC, cat. CRL-3276), 1.25 mM N-Acetyl-L-cysteine (Sigma-Aldrich, cat. A9165), 10 mM nicotinamide (Sigma-Aldrich, cat. N0636), 1X B-27 supplement (Thermo Fisher Scientific, cat. 17504044), 1X N-2 supplement (Thermo Fisher Scientific, cat. 17502048), 10 microM Y-27632 dihydrochloride (Tocris Bioscience, cat. 1254), and 50 ng/mL human EGF recombinant protein (Thermo Fisher Scientific, cat. PHG0311). The 485176-168-R4-J1-PDC line was cultured in Panc media, which includes all 6C/Colon 1B media components plus 100 ng/mL human FGF-10 (Thermo Fisher Scientific, cat. 100-26), 500 nM SB-431542 (Selleckchem, cat. S1067), and gastrin (Tocris, cat. 3006).
[…]

[1] = second compound 0.0316 µM, first compound 0.0316 µM
[2] = second compound 0.0316 µM, first compound 0.1 µM
[3] = second compound 0.0316 µM, first compound 0.316 µM
[4] = second compound 0.0316 µM, first compound 1 µM
[5] = second compound 0.0316 µM, first compound 3.16 µM
[6] = second compound 0.0316 µM, first compound 10 µM
[7] = second compound 0.1 µM, first compound 0.0316 µM
[8] = second compound 0.1 µM, first compound 0.1 µM
[9] = second compound 0.1 µM, first compound 0.316 µM
[10] = second compound 0.1 µM, first compound 1 µM
[11] = second compound 0.1 µM, first compound 3.16 µM
[12] = second compound 0.1 µM, first compound 10 µM
[13] = second compound 0.316 µM, first compound 0.0316 µM
[14] = second compound 0.316 µM, first compound 0.1 µM
[15] = second compound 0.316 µM, first compound 0.316 µM
[16] = second compound 0.316 µM, first compound 1 µM
[17] = second compound 0.316 µM, first compound 3.16 µM
[18] = second compound 0.316 µM, first compound 10 µM
[19] = second compound 1 µM, first compound 0.0316 µM
[20] = second compound 1 µM, first compound 0.1 µM
[21] = second compound 1 µM, first compound 0.316 µM
[22] = second compound 1 µM, first compound 1 µM
[23] = second compound 1 µM, first compound 3.16 µM
[24] = second compound 1 µM, first compound 10 µM
[25] = second compound 3.16 µM, first compound 0.0316 µM
[26] = second compound 3.16 µM, first compound 0.1 µM
[27] = second compound 3.16 µM, first compound 0.316 µM
[28] = second compound 3.16 µM, first compound 1 µM
[29] = second compound 3.16 µM, first compound 3.16 µM
[30] = second compound 3.16 µM, first compound 10 µM
[31] = second compound 10 µM, first compound 0.0316 µM
[32] = second compound 10 µM, first compound 0.1 µM
[33] = second compound 10 µM, first compound 0.316 µM
[34] = second compound 10 µM, first compound 1 µM
[35] = second compound 10 µM, first compound 3.16 µM
[36] = second compound 10 µM, first compound 10 µM
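Note: spheroids exposed to compounds for seven days before reading.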
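Throughout, for viability, T/C: percent viability relative to DMSO vehicle control taken as 100%.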

CC1COCCN1c1cc(C2(O)CC3CCC(C2)O3)c2cnn(-c3ccn[nH]3)c2n1 (stereo unspecified) + CN(C)c1ccc(Nc2c3ccc(NC(=O)CCN4CCCC4)cc3nc3cc(NC(=O)CCN4CCCC4)ccc23)cc1
inactive: viability, T/C [1] 65.6% | viability, T/C [2] 52.2% | viability, T/C [3] 55.3% | viability, T/C [4] 90% | viability, T/C [5] 87.1% | viability, T/C [6] 92.5% | viability, T/C [7] 79.8% | viability, T/C [8] 49.7% | viability, T/C [9] 45.7% | viability, T/C [10] 108% | viability, T/C [11] 91.4% | viability, T/C [12] 90.4% | viability, T/C [13] 78.8% | viability, T/C [14] 45.1% | viability, T/C [15] 64.5% | viability, T/C [16] 90% | viability, T/C [17] 94.1% | viability, T/C [18] 88.4% | viability, T/C [19] 61.9% | viability, T/C [20] 49.6% | viability, T/C [21] 39.4% | viability, T/C [22] 88% | viability, T/C [23] 89.1% | viability, T/C [24] 83.8% | viability, T/C [25] 57.4% | viability, T/C [26] 51.8% | viability, T/C [27] 50.2% | viability, T/C [28] 87.3% | viability, T/C [29] 95.5% | viability, T/C [30] 83.9% | viability, T/C [31] 59.8% | viability, T/C [32] 47.3% | viability, T/C [33] 43.1% | viability, T/C [34] 93.1% | viability, T/C [35] 88.3% | viability, T/C [36] 88.5%
31.6 nM: IC50 (second compound 0.1 µM) | IC50 (second compound 1 µM) | IC50 (second compound 10 µM)
> 10000 nM: IC50 (second compound 0.0316 µM) | IC50 (second compound 0.316 µM) | IC50 (second compound 3.16 µM)

COc1ccc([C@@H](O)c2cc(-c3ncnc4cc(N5CCOCC5)ccc34)c(F)cc2Cl)nn1 + CN(C)c1ccc(Nc2c3ccc(NC(=O)CCN4CCCC4)cc3nc3cc(NC(=O)CCN4CCCC4)ccc23)cc1
inactive: viability, T/C [1] 97.8% | viability, T/C [2] 96.5% | viability, T/C [3] 73.9% | viability, T/C [4] 76.7% | viability, T/C [5] 42.2% | viability, T/C [6] 34.5% | viability, T/C [7] 98.8% | viability, T/C [8] 86.9% | viability, T/C [9] 79.1% | viability, T/C [10] 63.5% | viability, T/C [11] 41.5% | viability, T/C [12] 38.5% | viability, T/C [13] 90.6% | viability, T/C [14] 91.2% | viability, T/C [15] 75% | viability, T/C [16] 67.1% | viability, T/C [17] 43.4% | viability, T/C [18] 31.8% | viability, T/C [19] 80.2% | viability, T/C [20] 67.3% | viability, T/C [21] 76% | viability, T/C [22] 57.2% | viability, T/C [23] 45.2% | viability, T/C [24] 34.8% | viability, T/C [25] 69.7% | viability, T/C [26] 81.6% | viability, T/C [27] 65.5% | viability, T/C [28] 57.9% | viability, T/C [29] 43.1% | viability, T/C [30] 29.9% | viability, T/C [31] 92.2% | viability, T/C [32] 81.3% | viability, T/C [33] 67.2% | viability, T/C [34] 44.6% | viability, T/C [35] 44% | viability, T/C [36] 34.9%
1800 nM: IC50 (second compound 3.16 µM)
2240 nM: IC50 (second compound 0.1 µM)
2030 nM: IC50 (second compound 1 µM)
876 nM: IC50 (second compound 10 µM)
2360 nM: IC50 (second compound 0.316 µM)
2850 nM: IC50 (second compound 0.0316 µM)

COc1cccc2c1C(=O)c1c(O)c3c(c(O)c1C2=O)CC(O)(C(=O)CO)CC3OC1CC(N)C(O)C(C)O1 (stereo unspecified) + CN(C)c1ccc(Nc2c3ccc(NC(=O)CCN4CCCC4)cc3nc3cc(NC(=O)CCN4CCCC4)ccc23)cc1
613 nM: IC50 (second compound 0.1 µM)
900 nM: IC50 (second compound 0.316 µM)
inactive: viability, T/C [1] 95.2% | viability, T/C [2] 66.8% | viability, T/C [3] 64.3% | viability, T/C [4] 42.9% | viability, T/C [5] 32% | viability, T/C [6] 32.3% | viability, T/C [7] 103% | viability, T/C [8] 73% | viability, T/C [9] 56.8% | viability, T/C [10] 48.8% | viability, T/C [11] 33.9% | viability, T/C [12] 37.9% | viability, T/C [13] 89.5% | viability, T/C [14] 66.3% | viability, T/C [15] 65.7% | viability, T/C [16] 48.3% | viability, T/C [17] 37.8% | viability, T/C [18] 37.5% | viability, T/C [19] 72.2% | viability, T/C [20] 59.5% | viability, T/C [21] 55.5% | viability, T/C [22] 51% | viability, T/C [23] 40.4% | viability, T/C [24] 33% | viability, T/C [25] 74.3% | viability, T/C [26] 68.5% | viability, T/C [27] 56% | viability, T/C [28] 44.8% | viability, T/C [29] 35.1% | viability, T/C [30] 36.5% | viability, T/C [31] 93% | viability, T/C [32] 69.4% | viability, T/C [33] 65.9% | viability, T/C [34] 48.1% | viability, T/C [35] 41.1% | viability, T/C [36] 33%
596 nM: IC50 (second compound 0.0316 µM)
760 nM: IC50 (second compound 1 µM)
562 nM: IC50 (second compound 3.16 µM)
1000 nM: IC50 (second compound 10 µM)
